Experimental data: ChEMBL document CHEMBL1201862, “PubChem BioAssay data set” (2004)
The source made the active and inactive calls.

Legend:
[1] = inhibitors of PGC1a acetylation in cells, dose response, cell-based, cherry-picked samples (AID 720514); format: functional;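 note: potency may reflect raised or lowered acetylation signal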
[2] = growth suppression of PTEN-null colon cells, dose response, cell-based, HCT116 PTEN knockout (AID 1047); format: functional;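 note: HCT116 colon tumor cells with PTEN knocked out; cells exposed to compound for 60 hours before readout; potency for loss of cell viability measured by luminescence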
[3] = growth suppression of beta-catenin-knockout colon cells, dose response, cell-based, HCT116, human colon tumor (AID 1045); format: functional;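 note: HCT116 colon tumor cells with beta catenin knocked out; cells exposed to compound for 60 hours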
[4] = target: T1, Microphthalmia-associated transcription factor (Homo sapiens, UniProt O75030); experiment: TRPM1 promoter luciferase signal decrease, dose response, MITF inhibitor project, cell-based, SK-MEL-5, cherry-picked, set 3 (AID 493073); format: functional
T1 sequence (O75030 whole entry): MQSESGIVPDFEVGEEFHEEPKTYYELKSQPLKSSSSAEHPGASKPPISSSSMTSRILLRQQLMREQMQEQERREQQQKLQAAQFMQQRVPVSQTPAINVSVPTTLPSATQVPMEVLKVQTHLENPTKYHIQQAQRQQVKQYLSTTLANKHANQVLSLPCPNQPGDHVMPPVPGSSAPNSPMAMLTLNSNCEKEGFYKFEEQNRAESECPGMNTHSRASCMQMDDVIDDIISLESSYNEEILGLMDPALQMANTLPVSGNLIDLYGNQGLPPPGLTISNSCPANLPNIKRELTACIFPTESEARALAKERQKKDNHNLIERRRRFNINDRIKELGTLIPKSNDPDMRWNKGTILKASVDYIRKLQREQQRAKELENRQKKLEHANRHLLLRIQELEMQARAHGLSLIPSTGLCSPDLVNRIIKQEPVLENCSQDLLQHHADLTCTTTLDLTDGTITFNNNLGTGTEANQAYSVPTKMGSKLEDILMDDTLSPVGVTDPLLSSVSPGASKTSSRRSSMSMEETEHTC

[5] = target: Induced myeloid leukemia cell differentiation protein Mcl-1 (Homo sapiens, UniProt Q07820); format: functional
Chain of Induced myeloid leukemia cell differentiation protein Mcl-1 (Q07820 whole entry): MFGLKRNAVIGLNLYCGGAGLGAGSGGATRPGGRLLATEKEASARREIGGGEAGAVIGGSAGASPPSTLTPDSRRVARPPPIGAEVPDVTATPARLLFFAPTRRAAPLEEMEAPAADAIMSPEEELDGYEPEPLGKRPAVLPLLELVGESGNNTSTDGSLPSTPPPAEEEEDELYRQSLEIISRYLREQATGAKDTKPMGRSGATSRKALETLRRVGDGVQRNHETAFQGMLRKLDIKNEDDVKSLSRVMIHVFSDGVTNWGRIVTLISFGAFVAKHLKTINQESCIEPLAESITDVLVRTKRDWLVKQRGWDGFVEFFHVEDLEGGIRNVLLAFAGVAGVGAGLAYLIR

[6] = target: Matrix metalloproteinase-14 (Homo sapiens, UniProt P50281); experiment: Dose Response confirmation of uHTS hits for a small molecule inhibitors of MT1-MMP activation in a fluorescence assay set 2.; format: functional
[7] = THP-1 cell cytotoxicity, dose response, cytotoxicity control for Vif-APOBEC3G degradation inhibitor project, THP-1 cells (AID 1117359); format: functional; conditions: Human immunodeficiency virus 1, THP-1
[8] = HEp-2 cell cytotoxicity, dose response, cytotoxicity control for RSV inhibitor project, HTS (AID 2410); format: functional; conditions: human respiratory syncytial virus
[9] = inhibitors of firefly luciferase expression or activity, dose response, H4 neuroglioma cells, luminescence (AID 1990); format: functional, cell-based
[10] = Luminescence Cell-Based Dose Response HTS to Identify Inhibitors of 5'UTR Stem-Loop Driven Prion Protein mRNA Translation in H4 Neuroglioblastoma Cells. [Related pubchem assays: 1827 (Project Summary), 1813 (Primary HTS)]; format: functional
[11] = HepG2 cell cytotoxicity, dose response, cytotoxicity control for Shn3 inhibitor project, CellTiter-Glo, cherry-picked (AID 624134); format: functional, cell-based
[12] = Shn3 3'UTR reporter inhibitors, dose response, cell-based, Clone20 osteoblasts, firefly luciferase, cherry-picked (AID 624132); format: functional;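 note: firefly luciferase luminescence from reporter carrying the Shn3 3'UTR in osteoblasts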
[13] = control 3'UTR Renilla luciferase suppression, dose response, counter-screen for Shn3 inhibitor project, cell-based, Clone20-Shn3RL, cherry-picked (AID 624133); format: functional
[14] = inhibitors of SNCA 5'UTR-driven reporter translation, confirmation, H4 neuroglioma cells, luminescence (AID 1988); format: functional, cell-based
[15] = target: T2, Ubiquitin-conjugating enzyme E2 N (Homo sapiens, UniProt P61088); format: functional;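 note: Dose-response confirmation in a TR-FRET assay detecting UBC13-driven polyubiquitin chain formation, inhibition measured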
T2 sequence (P61088 whole entry): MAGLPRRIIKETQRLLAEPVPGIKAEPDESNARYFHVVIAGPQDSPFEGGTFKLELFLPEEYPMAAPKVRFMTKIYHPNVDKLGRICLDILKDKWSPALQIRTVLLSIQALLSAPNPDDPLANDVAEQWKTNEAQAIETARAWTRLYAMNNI

[16] = system: A549; experiment: A549 cell toxicity, dose response, cytotoxicity control, plate reader, cherry-pick samples (AID 687028); format: functional, cell-based; conditions: Homo sapiens
[17] = target: Fructose-bisphosphate aldolase (Mycobacterium tuberculosis, UniProt P9WQA3); experiment: Fluorescence-based biochemical high throughput dose response assay for inhibitors of the fructose-bisphosphate aldolase (FBA) of M. tuberculosis.; format: functional
Chain of Fructose-bisphosphate aldolase (P9WQA3 whole entry, the tested form may be a part): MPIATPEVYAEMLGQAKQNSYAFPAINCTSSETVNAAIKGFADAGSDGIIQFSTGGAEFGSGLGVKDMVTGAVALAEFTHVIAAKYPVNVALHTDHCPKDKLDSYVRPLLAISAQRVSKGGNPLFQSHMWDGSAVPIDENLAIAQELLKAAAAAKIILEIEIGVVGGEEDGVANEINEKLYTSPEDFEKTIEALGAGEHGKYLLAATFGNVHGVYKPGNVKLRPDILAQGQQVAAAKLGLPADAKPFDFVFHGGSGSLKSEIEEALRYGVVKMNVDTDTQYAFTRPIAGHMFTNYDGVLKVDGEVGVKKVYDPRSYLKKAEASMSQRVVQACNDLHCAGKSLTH

[18] = target: T3, Oxysterols receptor LXR-beta (Homo sapiens, UniProt P55055); format: functional, cell-based;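 note: Cell-based luminescence dose-response assay of agonist activity at LXR, run as a confirmatory counterscreen to a daf-12 agonist screen; HEK293 cells with Gal4-LXR fusion and GAL4-driven luciferase reporter; agonist potency from rising luciferase signal of a Gal4-LXR reporter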
T3 sequence (P55055 whole entry): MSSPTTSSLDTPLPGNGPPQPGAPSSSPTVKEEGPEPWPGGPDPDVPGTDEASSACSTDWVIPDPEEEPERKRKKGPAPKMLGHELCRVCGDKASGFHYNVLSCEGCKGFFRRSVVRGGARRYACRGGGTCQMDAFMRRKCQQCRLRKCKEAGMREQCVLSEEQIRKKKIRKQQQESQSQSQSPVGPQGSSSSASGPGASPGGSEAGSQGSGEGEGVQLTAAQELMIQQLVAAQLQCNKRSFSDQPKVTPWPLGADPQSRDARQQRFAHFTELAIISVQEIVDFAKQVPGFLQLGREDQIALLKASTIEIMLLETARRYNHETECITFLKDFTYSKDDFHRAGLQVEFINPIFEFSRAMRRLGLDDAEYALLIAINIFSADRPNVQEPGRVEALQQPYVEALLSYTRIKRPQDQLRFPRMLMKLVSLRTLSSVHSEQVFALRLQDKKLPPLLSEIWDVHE

[19] = HepG2 cell cytotoxicity, dose response, cytotoxicity control, ATP luminescence, cherry-pick, activator set 2 (AID 1053143); format: functional, cell-based
[20] = cells
[21] = target: T4, Small ubiquitin-related modifier 1 (Homo sapiens, UniProt P63165); experiment: inhibitors of SUMO1 peptide binding, dose response, biochemical, fluorescence polarization, uHTS hits (AID 624382); format: functional; conditions: read-out: IC50_Mean
T4 sequence (P63165 whole entry): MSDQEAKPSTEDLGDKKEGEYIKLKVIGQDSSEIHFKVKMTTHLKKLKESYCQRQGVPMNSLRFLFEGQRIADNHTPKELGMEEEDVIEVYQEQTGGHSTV

[22] = target: 1-phosphatidylinositol 4,5-bisphosphate phosphodiesterase beta-3 (Homo sapiens, UniProt Q01970); experiment: Fluorescence-based biochemical high throughput dose response assay to identify inhibitors of phospholipase C isozymes (PLC-B3).
Chain of 1-phosphatidylinositol 4,5-bisphosphate phosphodiesterase beta-3 (Q01970 whole entry): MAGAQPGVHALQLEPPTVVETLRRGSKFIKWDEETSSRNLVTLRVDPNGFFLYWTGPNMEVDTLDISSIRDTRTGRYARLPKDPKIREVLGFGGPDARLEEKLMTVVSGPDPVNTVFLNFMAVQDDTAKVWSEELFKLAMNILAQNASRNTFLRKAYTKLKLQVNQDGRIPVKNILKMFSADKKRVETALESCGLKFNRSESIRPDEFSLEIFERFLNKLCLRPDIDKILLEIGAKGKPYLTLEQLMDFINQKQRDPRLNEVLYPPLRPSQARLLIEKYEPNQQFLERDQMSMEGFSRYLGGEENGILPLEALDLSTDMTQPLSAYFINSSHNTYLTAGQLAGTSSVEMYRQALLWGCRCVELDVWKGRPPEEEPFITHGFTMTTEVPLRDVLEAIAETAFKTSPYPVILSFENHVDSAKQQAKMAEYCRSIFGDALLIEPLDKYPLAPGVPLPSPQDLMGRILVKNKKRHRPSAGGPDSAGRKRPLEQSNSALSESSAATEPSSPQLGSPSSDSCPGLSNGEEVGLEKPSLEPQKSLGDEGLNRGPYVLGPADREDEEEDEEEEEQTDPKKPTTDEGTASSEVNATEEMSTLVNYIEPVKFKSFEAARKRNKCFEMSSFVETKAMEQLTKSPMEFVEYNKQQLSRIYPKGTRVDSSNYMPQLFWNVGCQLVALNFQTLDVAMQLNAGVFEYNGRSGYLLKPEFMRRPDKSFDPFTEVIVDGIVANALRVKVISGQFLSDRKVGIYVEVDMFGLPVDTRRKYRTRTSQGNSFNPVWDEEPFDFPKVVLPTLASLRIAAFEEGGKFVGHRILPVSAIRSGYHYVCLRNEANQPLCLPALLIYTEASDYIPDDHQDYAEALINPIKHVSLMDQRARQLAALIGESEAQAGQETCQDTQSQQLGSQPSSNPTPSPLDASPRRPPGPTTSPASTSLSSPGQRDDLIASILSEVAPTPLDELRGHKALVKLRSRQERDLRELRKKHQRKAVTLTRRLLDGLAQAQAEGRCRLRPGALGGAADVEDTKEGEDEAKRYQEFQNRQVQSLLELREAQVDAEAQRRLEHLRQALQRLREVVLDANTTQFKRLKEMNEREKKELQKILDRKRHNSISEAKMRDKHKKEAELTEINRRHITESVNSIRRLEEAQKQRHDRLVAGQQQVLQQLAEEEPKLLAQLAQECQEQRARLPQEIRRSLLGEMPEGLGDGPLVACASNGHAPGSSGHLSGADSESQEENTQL

[23] = target: 1-phosphatidylinositol 4,5-bisphosphate phosphodiesterase gamma-1 (Homo sapiens, UniProt P19174); experiment: Counterscreen for inhibitors of phospholipase C isozymes (PLC-B3): Fluorescence-based biochemical high throughput dose response assay to identify inhibitors of phospholipase C isozymes (PLC-gamma1).
Chain of 1-phosphatidylinositol 4,5-bisphosphate phosphodiesterase gamma-1 (P19174 whole entry): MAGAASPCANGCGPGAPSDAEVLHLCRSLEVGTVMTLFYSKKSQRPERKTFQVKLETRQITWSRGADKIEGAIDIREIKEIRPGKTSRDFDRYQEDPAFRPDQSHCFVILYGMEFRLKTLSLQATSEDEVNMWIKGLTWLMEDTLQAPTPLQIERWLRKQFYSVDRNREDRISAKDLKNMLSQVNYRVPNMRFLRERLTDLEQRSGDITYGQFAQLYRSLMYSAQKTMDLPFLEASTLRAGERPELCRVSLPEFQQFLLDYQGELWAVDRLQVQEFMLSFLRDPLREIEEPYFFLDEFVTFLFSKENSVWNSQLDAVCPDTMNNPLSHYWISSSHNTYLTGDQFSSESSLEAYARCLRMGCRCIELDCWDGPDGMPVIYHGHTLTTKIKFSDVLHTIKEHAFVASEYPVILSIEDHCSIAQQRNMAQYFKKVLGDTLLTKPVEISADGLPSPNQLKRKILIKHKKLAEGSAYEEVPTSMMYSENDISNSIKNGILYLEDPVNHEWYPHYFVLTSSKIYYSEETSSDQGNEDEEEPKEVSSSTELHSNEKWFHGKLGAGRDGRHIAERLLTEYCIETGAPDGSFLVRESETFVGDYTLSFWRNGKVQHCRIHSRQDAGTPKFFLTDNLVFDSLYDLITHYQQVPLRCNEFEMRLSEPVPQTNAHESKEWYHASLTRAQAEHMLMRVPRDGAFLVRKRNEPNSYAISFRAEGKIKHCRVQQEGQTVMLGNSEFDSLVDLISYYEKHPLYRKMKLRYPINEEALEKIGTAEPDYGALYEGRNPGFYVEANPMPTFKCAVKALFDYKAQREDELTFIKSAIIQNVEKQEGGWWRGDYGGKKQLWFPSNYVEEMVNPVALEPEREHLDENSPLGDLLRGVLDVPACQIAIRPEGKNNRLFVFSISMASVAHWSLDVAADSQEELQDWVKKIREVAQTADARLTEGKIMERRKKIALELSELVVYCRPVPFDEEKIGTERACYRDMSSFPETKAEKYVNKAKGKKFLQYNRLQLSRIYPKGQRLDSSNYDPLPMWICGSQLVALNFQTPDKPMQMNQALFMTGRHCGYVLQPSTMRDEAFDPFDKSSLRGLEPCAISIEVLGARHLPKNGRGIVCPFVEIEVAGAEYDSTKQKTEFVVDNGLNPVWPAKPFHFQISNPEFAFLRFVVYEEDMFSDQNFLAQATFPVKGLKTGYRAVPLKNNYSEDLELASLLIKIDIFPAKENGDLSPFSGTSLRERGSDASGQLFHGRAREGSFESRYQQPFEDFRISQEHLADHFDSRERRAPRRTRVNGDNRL

[24] = target: T4, Small ubiquitin-related modifier 1; experiment: inhibitors of SUMO1 partner interactions, dose response, biochemical, FRET (AID 624383); format: functional; conditions: read-out: IC50_Mean

With `C=CCn1c(C)cc(C(=O)Cn2ncc(Cl)c(Cl)c2=O)c1C` the AC50 [1] was 5.68 µM (active), the EC50 [2] was 3.08 µM (active) and the EC50 [3] was 2.12 µM (active). For the same compound, the AC50 [4] was 9.97 µM (active) and the IC50 [5] was 5.14 µM (active).
With `COc1ccc(OCC(=O)NNc2c3ccccc3nc3ccccc23)cc1` the IC50 [6] was > 80 µM (inactive).
In the case of `Cc1ccccc1S(=O)(=O)Cc1ccc(C(=O)NCCCN2CCC(C)CC2)o1`, the CC50 [7] is reported as > 40 µM (active).
For `CCc1ccc(O)c(CNCCNCc2cc(CC)ccc2O)c1`, the CC50 [8] was 9.08 µM (active), the EC50 [9] was 11 µM (active) and the EC50 [10] was 12 µM (active). For the same compound, the AC50 [11] was 15.6 µM (active), the AC50 [12] was 1.38 µM (active) and the AC50 [13] was 8.22 µM (active). The EC50 [14] was 9.33 µM (active), the IC50 [15] was > 20 µM (inactive) and the AC50 [16] was 19.8 µM (active).
With `Cc1cc(-c2ccc(Cl)cc2)n2nc(N)nc2n1` the IC50 [17] was 1.4 µM (active).
For `Cc1ccc(-c2cnc3ccccc3n2)cc1C`, the EC50 [18] was > 67.6 µM (inactive), the AC50 [19] was 26 µM (active) and the EC50 [20] was > 67.6 µM (inactive).
For `CCOc1c2ccc(C(=O)NC3CCCc4ccccc43)cc2nn1CC` (stereo not given), the IC50 [17] was 1.64 µM (active).
With `O=C1NC[C@@H](Cc2ccc(O)cc2)N(CCc2cc(C(F)(F)F)cc(C(F)(F)F)c2)C1=O` the IC50 [21] was > 66.6 µM (inactive), the IC50 [22] was > 122 µM (inactive) and the IC50 [23] was 82.2 µM (inactive). For the same compound, the IC50 [24] was 9.75 µM (active).
